Read-outs that look alike come from different tables or passages of the source.
Legend:
[1] = molecular target: T1, ammonium transporter AMT1 (Arabidopsis thaliana, UniProt P54144); experiment: cell-based
T1 construct: expressed in transfected cells; host or cells: Saccharomyces cerevisiae 26972c (mutations in MEP1 and MEP2)
T1 sequence (P54144 1-501): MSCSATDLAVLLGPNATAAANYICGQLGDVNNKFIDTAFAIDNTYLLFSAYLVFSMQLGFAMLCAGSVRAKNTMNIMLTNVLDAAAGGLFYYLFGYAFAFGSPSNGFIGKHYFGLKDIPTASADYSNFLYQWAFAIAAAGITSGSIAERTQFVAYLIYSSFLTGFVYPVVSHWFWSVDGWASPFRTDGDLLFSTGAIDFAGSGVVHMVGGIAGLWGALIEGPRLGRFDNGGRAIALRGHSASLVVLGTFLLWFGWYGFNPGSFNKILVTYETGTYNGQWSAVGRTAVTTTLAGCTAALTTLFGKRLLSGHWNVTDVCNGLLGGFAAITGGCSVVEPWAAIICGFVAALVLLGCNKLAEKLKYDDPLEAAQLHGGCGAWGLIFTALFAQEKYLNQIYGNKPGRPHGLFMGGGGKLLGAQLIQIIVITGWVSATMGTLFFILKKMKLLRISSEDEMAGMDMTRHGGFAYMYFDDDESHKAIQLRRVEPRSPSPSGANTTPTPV
Procedure: The measurements of transport identify inhibitors of plant ammonium transporters are carried out with the structural analog methylamine because radiolabeled ammonium is not commercially obtainable.
The yeast cells are transformed by standard methods with cDNA sequences which code for an ammonium transporter from plants and which permit expression of a functional transporter in the yeast cells. […] The cells are cultured in NAAG-medium (2% glucose, 1.7 g/l yeast nitrogen-base w/o amino acids and ammonium sulfate (Difco), supplemented with 500 μg/ml L-proline) at 28 degrees Celsius, and harvested in the logarithmic phase (OD660.=0.6). The cells are then spun down in a centrifuge at 4000 rpm and 4 degrees Celsius for 10 minutes, washed twice with 20 mM sodium phosphate buffer, pH 7, and taken up in the same buffer to an 0D660 of 8. 200 μl aliquot fractions of the cell suspension are taken. 5 minutes before the actual measurement,the yeasts are activated by addition of 100 mM glucose and incubated at 30 degrees Celsius. To start the reaction, 100 μl of the cell suspension are added to 100 µl of reaction mixture (20 mM Na phosphate buffer, pH7; 18.5 kBq of [^14 C]-methylamine (NEN); 100 M methylamine; substance to be tested depending on the experiment (see FIG. 4)). In each case 10, 60, 120 and 180 seconds after starting the reaction, 50 μl aliquots are taken, added to 4 ml of ice-cold 5 mM methylamine solution and filtered on glass fibre filters. After the filters have been washed with a further 8 ml of a methylamine solution, the radioactivity on the filters is subsequently determined in a liquid scintillation counter. Inhibitors are added 60 seconds before adding the glucose.
The uptake of radiolabeled methylamine without addition of a potential inhibitor is determined as one control.

[2] = molecular target: T2, sucrose transporter S21 (SoSUT1) (Spinacia oleracea, UniProt Q03411); experiment: [14C]-sucrose uptake by yeast strain SUSY7 expressing the spinach sucrose transporter; format: cell-based; settings: for remaining activity at 1000 µM: tested substance 1.0 mmol/l
T2 construct: expressed in transfected cells; host or cells: Saccharomyces cerevisiae SUSY7
T2 sequence (Q03411 1-525): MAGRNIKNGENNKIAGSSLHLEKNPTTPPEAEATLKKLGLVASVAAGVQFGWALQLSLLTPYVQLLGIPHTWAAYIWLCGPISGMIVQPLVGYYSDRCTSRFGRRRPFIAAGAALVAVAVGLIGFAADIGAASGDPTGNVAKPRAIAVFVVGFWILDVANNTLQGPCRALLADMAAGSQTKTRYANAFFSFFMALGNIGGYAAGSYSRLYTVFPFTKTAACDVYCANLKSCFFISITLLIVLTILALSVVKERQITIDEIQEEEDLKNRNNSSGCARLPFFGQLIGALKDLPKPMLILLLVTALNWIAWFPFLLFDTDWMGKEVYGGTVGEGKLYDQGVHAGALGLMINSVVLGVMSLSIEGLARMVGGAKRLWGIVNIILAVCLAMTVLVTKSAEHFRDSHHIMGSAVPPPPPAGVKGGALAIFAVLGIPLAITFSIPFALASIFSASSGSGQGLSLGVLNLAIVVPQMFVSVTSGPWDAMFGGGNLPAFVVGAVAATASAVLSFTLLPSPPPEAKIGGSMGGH
Procedure: Yeast cells of the strain SUSY7 (Riesmeier et al., 1992, EMBO J. 11: 4705-4713) are used to identify substances which have an inhibitory effect on sucrose transporters from spinach. Cells of this strain are transformed with a cDNA sequence which codes for the sucrose transporter S21 (SoSUT1) from spinach and which ensures expression of a functional transporter in the cells. The yeast cells are cultured in minimal medium (SD+2% (w/v) sucrose, pH 3.8) at 28° C. and harvested in the logarithmic phase (OD600 =0.6). The cells are spun down at 4000 rpm for 10 minutes and washed twice with SD medium. A cell concentration of c=50 g/l in SD medium is adjusted according to the wet weight of the cells, and 200 μl aliquot fractions are taken. Before the actual reaction, the cells are incubated in 10 mM glucose for 5 min and adjusted to pH 3.8 with MES buffer. The reaction is started by adding 200 μl of a 0.2 mmol/l [14C]-sucrose solution (3 mCi/mmol) in SD medium (pH 3.8). After 20, 60, 120, 180 and 240 seconds, 70 μl portions of the suspension are removed and pipetted into 4 ml of ice-cold water in order to stop the reaction. The cells are filtered off on glass fiber filters and washed twice with ice-cold water. The radioactivity on the filters is subsequently determined in a liquid scintillation counter. The substances to be tested are added 30 seconds before addition of the sucrose. The uptake of radiolabeled sucrose without addition of a potential inhibitor is determined as one control. Cells of the strain SUSY7 which are not transformed with cDNA sequences coding for a sucrose transporter from spinach are employed as further control.
The various tested substances, their concentration and the activity of the transporter, shown as percentage activity of the control in which no potential inhibitors were added, are indicated. Substances which specifically show an inhibitory effect on the sucrose transporter S21 (SoSUT1), are tested for their herbicidal and growth-regulating effect on whole plants.

[3] = molecular target: T3, sucrose transporter P62 (StSUT1) (Solanum tuberosum, UniProt Q43653); experiment: [14C]-sucrose uptake by yeast strain SUSY-7-P62 (StSUT1) expressing the potato sucrose transporter; format: cell-based; settings: [14C]-sucrose uptake, pH 3.8
T3 construct: whole-cell [14C]-sucrose uptake; no tag or borders given
T3 sequence (Q43653 1-516): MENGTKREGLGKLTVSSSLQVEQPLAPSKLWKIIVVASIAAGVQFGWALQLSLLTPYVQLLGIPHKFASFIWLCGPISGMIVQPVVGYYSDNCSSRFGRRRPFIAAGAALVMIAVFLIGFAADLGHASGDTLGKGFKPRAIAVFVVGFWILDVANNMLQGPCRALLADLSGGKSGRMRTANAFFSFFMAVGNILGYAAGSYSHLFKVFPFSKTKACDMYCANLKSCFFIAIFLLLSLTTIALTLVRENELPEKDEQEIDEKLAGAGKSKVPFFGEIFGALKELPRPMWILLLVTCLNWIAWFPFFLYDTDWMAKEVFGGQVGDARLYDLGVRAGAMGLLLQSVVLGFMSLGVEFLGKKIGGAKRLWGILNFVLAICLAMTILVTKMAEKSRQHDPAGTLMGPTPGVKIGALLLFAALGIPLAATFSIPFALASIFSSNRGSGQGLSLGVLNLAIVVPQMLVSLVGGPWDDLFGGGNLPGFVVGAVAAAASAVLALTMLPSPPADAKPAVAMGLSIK
Excerpt: Yeast cells of the strain SUSY7 (Riesmeier et al., 1992, EMBO J. 11: 4705-4713) are used to identify substances which have an inhibitory effect on sucrose transporters from potato. Cells of this strain are transformed with a cDNA sequence which codes for the sucrose transporter P62 (StSUT1) from potato (WO 94/00574, Riesmeier et al., 1993, Plant Cell 5:1591-1598) and which ensures expression of a functional transporter in the cells. The resulting yeast strain was called SUSY-7-P62 (StSUT1). The yeast cells are cultured in minimal medium (SD +2% (w/v) sucrose, pH 3.8) at 28° C. and harvested in the logarithmic phase (OD600 =0.6). The cells are spun down at 4000 rpm for 10 minutes and washed twice with SD medium. A cell concentration of c=50 g/l in SD medium is adjusted according to the wet weight of the cells, and 200 Al aliquot fractions are taken. Before the actual reaction, the cells are incubated in 10 mM glucose for 5 min and adjusted to pH 3.8 with MES buffer. The reaction is started by adding 200 Al of a 0.2 mmol/l [14C]-sucrose solution (3 mCi/mmol) in SD medium (pH 3.8). After 20, 60, 120, 180 and 240 seconds, 70 μl portions of the suspension are removed and pipetted into 4 ml of ice-cold water in order to stop the reaction. The cells are filtered off on glass fiber filters and washed twice with ice-cold water. The radioactivity on the filters is subsequently determined in a liquid scintillation counter. The substances to be tested are added 30 seconds before addition of the sucrose. The uptake of radiolabeled sucrose without addition of a potential inhibitor is determined as one control. Cells of the strain SUSY7 which are not transformed with cDNA sequences coding for a sucrose transporter from potato are employed as further control.
The various tested substances, their concentration and the activity of the transporter, shown as percentage activity of the control in which no potential inhibitors were added, are indicated.

[4] = system: sucrose transporter P62 (StSUT1); experiment: Activation of sucrose transport by preincubation of the yeast cells; format: cell-based, Solanum tuberosum
Procedure: The transport of sucrose by the sucrose transporter P62 (StSUT1) from Solanum tuberosum can be increased by previous energizing of the yeast cells by incubation in glucose, stachyose and adenine. The same increase in transport activity is achieved by reducing the pH to pH 3.8 in the measurement. The measurement of transport to determine the activation takes place as described in Example 3 but the cells are incubated before the actual measurement not in 10 mM glucose for 5 min but in solutions of various concentrations of glucose, stachyose and adenine for 5 min. Yeast cells which are not incubated in solutions of these substances before the measurement act as control. The following table indicates the extent of activation of sucrose transport with various concentrations of glucose, stachyose and adenine compared with the control.

[5] = pH 7, [14C]-methylamine uptake, tested substance 500 μM, read-out: Activity relative to the control [%]
[6] = pH 3.8, read-out: Activity relative to the control [%]
[7] = [14C]-sucrose uptake, pH 3.8, tested substance 2 mM, read-out: Activity relative to the control [%]
[8] = tested substance 2 mM, read-out: Activity relative to the control [%]
[9] = [14C]-methylamine uptake, tested substance 500 μM
[10] = sucrose transport after 5 min preincubation with the substance at c1 [0.2 mol/l], 200000 µM
[11] = sucrose transport after 5 min preincubation with the substance at c2 [2 mmol/l]
[12] = [14C]-sucrose uptake, pH 3.8, tested substance 2 mM
[13] = pH 7, read-out: Activity relative to the control [%]
[14] = [14C]-sucrose uptake, pH 3.8, read-out: Activity relative to the control [%]

## CN(C)C [Trimethylamine]
[1]; [5]
  remaining activity at 500 µM: 89%

## OC[C@H]1OC(O)[C@H](O)[C@@H](O)[C@H]1O (some centres unmarked) [Galactose]
[2]; [6]
  remaining activity at 2000 µM: 97.7%

## OC[C@H]1O[C@H](OC[C@H]2O[C@H](O[C@]3(CO)O[C@H](CO)[C@@H](O)[C@@H]3O)[C@H](O)[C@@H](O)[C@@H]2O)[C@H](O)[C@@H](O)[C@H]1O [Raffinose]
[2]; [7]
  remaining activity at 2000 µM: 110%
[3]; [8]
  remaining activity at 2000 µM: 110%

## [Cl-].[Cs+] [CsCl]
[1]; [9]
  Activity relative to the control [%]: 98%

## C(=NC1CCCCC1)=NC1CCCCC1 [DCCD]
[1]; pH 7, [14C]-methylamine uptake, tested substance 200 μM, read-out: Activity relative to the control [%]
  remaining activity at 200 µM: 15%

## [Cl-].[Rb+] [RbCl]
[1]; [9]
  Activity relative to the control [%]: 96%

## CCN1C(=O)C=CC1=O [N-Ethylmaleimide]
[3]; tested substance 1 mM, read-out: Activity relative to the control [%]
  remaining activity at 1000 µM: 22%

## OC[C@H]1OC(O)[C@H](O)[C@@H](O)[C@@H]1O (some centres unmarked) [Glucose]
[4]; [10]
  Activity relative to the control [%]: 89 ± 5%
[4]; [11]
  Activity relative to the control [%]: 90 ± 3%

## Antimycin A
[1]; [14C]-methylamine uptake, tested substance 10 μg/ml
  Activity relative to the control [%]: 8%

## Altrose
[2]; [12]
  Activity relative to the control [%]: 80.6%

## Cl.N [NH4 Cl]
[1]; [9]
  Activity relative to the control [%]: 10%

## OC[C@H]1OC(O)[C@@H](O)[C@@H](O)[C@@H]1O (some centres unmarked) [Mannose]
[2]; [6]
  remaining activity at 2000 µM: 86.5%

## O=C(CO)[C@@H](O)[C@H](O)[C@H](O)CO[C@H]1O[C@H](CO)[C@@H](O)[C@H](O)[C@H]1O [Palatinose]
[2]; [7]
  remaining activity at 2000 µM: 85%
[3]; [8]
  remaining activity at 2000 µM: 102%

## [Cl-].[K+] [KCl]
[1]; [9]
  Activity relative to the control [%]: 98%

## O=C(CO)[C@@H](O)[C@@H](O)[C@H](O)CO [Tagatose]
[2]; [7]
  remaining activity at 2000 µM: 105%
[3]; [8]
  remaining activity at 2000 µM: 103%

## OC[C@H]1O[C@@H](O[C@H]2[C@H](O)[C@@H](O)[C@@H](O)O[C@@H]2CO)[C@H](O)[C@@H](O)[C@H]1O [α-Lactose]
[2]; [7]
  remaining activity at 2000 µM: 81.8%

## Nc1ncnc2nc[nH]c12 [Adenine]
[4]; preincubation of yeast cells, result in words
  Effect on sucrose transport as a function of concentration: linear relation between the adenine concentration and the increase in the sucrose transport rate
[4]; [10]
  Activity relative to the control [%]: 141 ± 5%
[4]; [11]
  Activity relative to the control [%]: 225 ± 6%

## OC[C@H]1O[C@@H](O[C@H]2[C@H](O)[C@@H](O)C(O)O[C@@H]2CO)[C@H](O)[C@@H](O)[C@@H]1O (some centres unmarked) [Cellobiose]
[2]; [7]
  remaining activity at 2000 µM: 99.4%

## CNC [Dimethylamine]
[1]; [13]
  remaining activity at 500 µM: 89%

## OC[C@H]1O[C@H](Oc2ccccc2)[C@H](O)[C@@H](O)[C@@H]1O [α-Phenylglucose]
[2]; [12]
  Activity relative to the control [%]: 8.0%
[3]; tested substance 2 mM
  Activity relative to the control [%]: 7%

## NC1CC(CO)C(O)C1O (centres unmarked)
[2]; [14]
  remaining activity at 1000 µM: 0%

## OC[C@H]1O[C@@](CO)(O[C@H]2O[C@H](CO)[C@@H](O)[C@H](O)[C@H]2O)[C@@H](O[C@H]2O[C@H](CO)[C@@H](O)[C@H](O)[C@H]2O)[C@@H]1O [Melizitose]
[2]; [7]
  remaining activity at 2000 µM: 97.2%

## OC[C@H]1O[C@@H](O[C@H]2[C@H](O)[C@@H](O)[C@H](O)O[C@@H]2CO)[C@H](O)[C@@H](O)[C@H]1O [β-Lactose]
[2]; [7]
  remaining activity at 2000 µM: 94.9%
[3]; [8]
  remaining activity at 2000 µM: 91%

## CCN [Ethylamine]
[1]; [5]
  remaining activity at 500 µM: 93%

## Nc1ncnc2c1ncn2C1CC=CC1CO (centres unmarked)
[2]; [14]
  remaining activity at 1000 µM: 0%

## OC[C@H]1O[C@H](OC[C@H]2OC(O)[C@H](O)[C@@H](O)[C@@H]2O)[C@H](O)[C@@H](O)[C@H]1O (some centres unmarked) [Melibiose]
[2]; [7]
  remaining activity at 2000 µM: 92.3%

## C[C@@H]1C[C@@H]([C@H](O)CC2CC(=O)NC(=O)C2)C(=O)[C@@H](C)C1 [Cycloheximide]
[1]; [13]
  remaining activity at 10 µg/mL: 85%
